Patent publication US9695155B2, “Herbicidal substituted pyrimidinyloxy benzene compounds” (E. I. DU PONT DE NEMOURS AND COMPANY, priority 2013, dated 2017)

Assays:
[1] = test system: bluegrass; assay: Test D preemergence; type: in vivo, Poa annua
Method in brief: (§1)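 Visual ratings from 0 (no effect) to 100 (complete control) relative to untreated plants were taken 7–21 days after treatment. Chemicals in a surfactant-containing solvent mixture were applied preemergence to seeds in silt loam, or postemergence to plants 2–18 cm tall (1–4 leaves) grown in a peat-based potting medium.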

[2] = test system: field poppy; assay: Test D postemergence; type: in vivo, Papaver rhoeas
Method in brief: as §1

[3] = test system: kochia; assay: Test D postemergence; type: in vivo, Kochia scoparia
Method in brief: as §1

[4] = test system: Italian ryegrass; assay: Test D postemergence; type: in vivo, Lolium multiflorum
Method in brief: as §1

[5] = test system: oilseed rape; assay: Test D preemergence; type: in vivo, Brassica napus
Method in brief: as §1

[6] = test system: deadnettle; assay: Test D postemergence; type: in vivo, Lamium amplexicaule
Method in brief: as §1

[7] = test system: field violet; assay: Test D postemergence; type: in vivo, Viola arvensis
Method in brief: as §1

[8] = test system: galium; assay: Test D preemergence; type: in vivo, Galium aparine
Method in brief: as §1

[9] = test system: winter barley; assay: Test D postemergence; type: in vivo, Hordeum vulgare
Method in brief: as §1

[10] = test system: spring barley; assay: Test D postemergence; type: in vivo, Hordeum vulgare
Method in brief: as §1

[11] = 16 g ai/ha, scale 0 (no effect) to 100 (complete control)
[12] = 31 g ai/ha, scale 0 to 100 (0 no effect, 100 complete control)
[13] = 62 g ai/ha, scale 0 to 100 (0 no effect, 100 complete control)
[14] = 125 g ai/ha, scale 0 to 100 (0 no effect, 100 complete control)
[15] = Postemergence, 62 g ai/ha, scale 0 to 100 (0 no effect, 100 complete control)
[16] = Postemergence, 31 g ai/ha, scale 0 to 100 (0 no effect, 100 complete control)
[17] = Postemergence, 125 g ai/ha, scale 0 to 100 (0 no effect, 100 complete control)
[18] = postemergence, 16 g ai/ha, scale 0 to 100, 0 no effect, 100 complete control

**Q.** Which “Plant response rating, Bluegrass” value [1, 11] does the source give for `FCc1cccc(Oc2ncc(Cl)cn2)c1-n1cc(I)cn1` [Compound 245] here?
**A.** The value was 0.

**Q.** What about the “Plant response rating, Bluegrass” value ([1]; 31 g ai/ha, scale 0-100) of the same compound?
**A.** Its value is 0.

**Q.** What about the “Plant response rating, Bluegrass” value ([1]; 62 g ai/ha, scale 0-100) of the same compound?
**A.** Its value is 0.

**Q.** And the “Plant response rating, Bluegrass” value ([1]; 125 g ai/ha, scale 0-100)?
**A.** The value was 20.

**Q.** What about the “Plant response rating, Field Poppy” value ([2]; 16 g ai/ha, scale 0-100) of the same compound?
**A.** Its value is 90.

**Q.** And the “Plant response rating, Field Poppy” value [2, 12]?
**A.** The value was 95.

**Q.** What about the “Plant response rating, Field Poppy” value [2, 13] of the same compound?
**A.** The value was 80.

**Q.** What about the “Plant response rating, Field Poppy” value [2, 14] of the same compound?
**A.** The value was 100.

**Q.** And the “Plant response rating, Kochia” value ([3]; 16 g ai/ha, scale 0-100)?
**A.** Its value is 25.

**Q.** And the “Plant response rating, Kochia” value [3, 12]?
**A.** Its value is 70.

**Q.** And the “Plant response rating, Kochia” value [3, 13]?
**A.** Its value is 90.

**Q.** What about the “Plant response rating, Kochia” value [3, 14] of the same compound?
**A.** Its value is 90.

**Q.** And the “Plant response rating, Ryegrass, Italian” value ([4]; 16 g ai/ha, scale 0-100)?
**A.** The value was 0.

**Q.** And the “Plant response rating, Ryegrass, Italian” value [4, 12]?
**A.** The value was 10.

**Q.** What about the “Plant response rating, Ryegrass, Italian” value [4, 13] of the same compound?
**A.** The value was 20.

**Q.** And the “Plant response rating, Ryegrass, Italian” value [4, 14]?
**A.** Its value is 20.

**Q.** And the “Plant response rating, Oilseed Rape” value [5, 11]?
**A.** Its value is 0.

**Q.** And the “Plant response rating, Oilseed Rape” value ([5]; 31 g ai/ha, scale 0-100)?
**A.** The value was 0.

**Q.** What about the “Plant response rating, Oilseed Rape” value ([5]; 62 g ai/ha, scale 0-100) of the same compound?
**A.** The value was 30.

**Q.** And the “Plant response rating, Oilseed Rape” value ([5]; 125 g ai/ha, scale 0-100)?
**A.** The value was 100.

**Q.** What about the “Plant response rating, Deadnettle” value ([6]; 16 g ai/ha, scale 0-100) of the same compound?
**A.** Its value is 100.

**Q.** And the “Plant response rating, Deadnettle” value [6, 12]?
**A.** Its value is 100.

**Q.** What about the “Plant response rating, Deadnettle” value [6, 13] of the same compound?
**A.** Its value is 100.

**Q.** And the “Plant response rating, Deadnettle” value [6, 14]?
**A.** Its value is 100.

**Q.** And the “Plant response rating, Field Violet” value ([7]; 16 g ai/ha, scale 0-100)?
**A.** The value was 25.

**Q.** And the “Plant response rating, Field Violet” value [7, 12]?
**A.** Its value is 80.

**Q.** What about the “Plant response rating, Field Violet” value [7, 13] of the same compound?
**A.** Its value is 90.

**Q.** And the “Plant response rating, Field Violet” value [7, 14]?
**A.** Its value is 90.

**Q.** And the “Plant response rating, Galium” value [8, 11]?
**A.** The value was 0.

**Q.** And the “Plant response rating, Galium” value ([8]; 31 g ai/ha, scale 0-100)?
**A.** Its value is 0.

**Q.** And the “Plant response rating, Galium” value ([8]; 62 g ai/ha, scale 0-100)?
**A.** Its value is 5.

**Q.** What about the “Plant response rating, Galium” value ([8]; 125 g ai/ha, scale 0-100) of the same compound?
**A.** Its value is 85.

**Q.** What about the “Plant response rating, Barley, Winter” value [9, 15] of the same compound?
**A.** Its value is 20.

**Q.** What about the “Plant response rating, Barley, Winter” value [9, 16] of the same compound?
**A.** The value was 15.

**Q.** And the “Plant response rating, Barley, Winter” value [9, 17]?
**A.** Its value is 20.

**Q.** What about the “Plant response rating, Barley, Winter” value [9, 18] of the same compound?
**A.** The value was 25.

**Q.** And the “Plant response rating, Barley, Spring” value [10, 15]?
**A.** Its value is 20.

**Q.** What about the “Plant response rating, Barley, Spring” value [10, 16] of the same compound?
**A.** The value was 20.

**Q.** What about the “Plant response rating, Barley, Spring” value [10, 17] of the same compound?
**A.** The value was 30.

**Q.** What about the “Plant response rating, Barley, Spring” value [10, 18] of the same compound?
**A.** The value was 10.
